According to patent publication US10561704B2, “Compositions and methods for treating neuropsychiatric disorders using an endothelin-B receptor agonist” (MIDWESTERN UNIVERSITY, priority 2013, dated 2020):
*1 amine or outer side, *2 acyl side, *3 side chain or, on linkers, in order; H or OH if unused. Where no end group is shown, it is not given here. Suc = O=C(CCC(=O)[*:2])[*:1]

Key:
postnatal rat brain = assay: Immunofluorescent labeling of ETB receptors, VEGF and NGF in the postnatal rat brain after IRL-1620; format: in vivo, Sprague-Dawley rats; settings: IRL-1620 on postnatal day 21, brain at day 28, vs control
Protocol: Timed pregnant female Sprague-Dawley rats (Harlan, Indianapolis, Ind.) were caged singly in a room controlled for ambient temperature (23±1° C.), humidity (50±10%) and a 12 h light/dark cycle (6:00 am-6:00 pm). Food and water were available ad libitum. All animal care and use for procedures were approved by the Institutional Animal Care and Use Committee (IACUC) of Midwestern University. In order to avoid variation due to hormonal changes, male pups only were separated and utilized for this study. The pups were euthanized via decapitation on postnatal day 1, 7, 14 and 28. The brains were aseptically removed and processed for either immunofluorescent labeling or immunoblot analysis of ETB receptors, VEGF and NGF.
After 21 days of gestation, 70 male and 65 female pups were born to 10 pregnant female rats. 30 male pups were randomly selected for Study I, and divided into 4 groups as follows: Group 1=male pups euthanized on postnatal day 1 (N=10); Group 2=male pups euthanized on postnatal day 7 (N=10); Group 3=male pups euthanized on postnatal day 14 (N=5); Group 4=male pups euthanized on postnatal day 28 (N=5). An additional 20 male pups were randomly selected for Study II, and divided into 2 groups: Control (N=10) and IRL-1620-treated (N=10). Pups in Study II received 3 doses of either isotonic saline (1 ml/kg) or ETB receptor agonist IRL-1620 (5 μg/kg; American Peptide Co, Inc., Sunnyvale, Calif.) on postnatal day 21. The doses were given intravenously at 2 hour intervals. All pups were weighed and evaluated for developmental and behavioral characteristics at postnatal day 1, 7, 14 and 28. Developmental and behavioral characteristics included active vs. sluggish behavior, healthy vs. shedding fur, licking, grooming, aggressive behavior, defecation, urination and wet dog shakes.
Immunofluorescently labeled antibodies were used to determine the expression of ETB receptors, VEGF and NGF in the developing rat brain. Male rat pups were euthanized via decapitation, and the brains were removed at postnatal day 1, 7, 14 and 28. The brains were washed in isotonic saline and transferred to a 4% paraformaldehyde (PFA)/NaPO4 buffer solution for 2 hours to fix the tissue, followed by suspension in a 20% sucrose/4% PFA solution for 48 hours at 4° C. Brains were then sliced into 20 μm thick coronal sections at −30° C. using a cryostat (Microtome cryostat HM 505 E; Walldorf, Germany). Sections were processed for immunofluorescent staining as described by Loo, et al. (Loo et al., 2002), with minor modifications. […] Fluorescence was detected using an inverted fluorescent microscope (Nikon Eclipse TiE, Melville, N.Y.). […]

[1] = system: middle cerebral artery occluded rats; settings: acute study, 24 hours (Leonard et al., 2011); cited from earlier work
normal rats = settings: intravenous; cited from earlier work

In the case of “Suc-Asp-Glu-Glu-Ala-Val-Tyr-Phe-Ala-His-Leu-Asp-Ile-Ile-Trp (Suc-DEEAVYFAHLDIIW) [IRL-1620]”, the “Intensity of ETB receptor staining in cerebral vasculature and cortex” value (postnatal rat brain) is reported as “significantly higher”, the “Intensity of NGF staining and number of NGF-positive cells, cortex or subventricular zones” value (postnatal rat brain) is reported as “did not alter” and the “Intensity of VEGF staining” value (postnatal rat brain) is reported as “further increase”. The “Number of VEGF-positive vessels” value (postnatal rat brain) was “further increase”, the “Reduction of infarct volume” value [1] was 83.66% and the “Cerebral blood flow (CBF)” value (normal rats) was “significant elevation”.
